Our source for the IC50 and Activity values is ChEMBL document CHEMBL6071148, “Synthesis and biological evaluation of novel 3,6- amide and thioamide substituted- 2,3,4,9-tetrahydro-1H-carbazoles for anti-cancer activity” (Eur J Med Chem, 2024).

pIC50: −log10 of the molar value. Active and inactive are the calls of the source. No cut-off for these calls is given here.

For orientation: pIC50 means the negative decadic logarithm of the IC50, by convention in mol/L. For orientation: IC50 means the concentration needed to halve the response being measured.

Series [1] relates to MCF7. Description: Cytotoxicity against human MCF7 cells assessed as inhibition of cell proliferation incubated for 72 hrs by MTT assay. The conditions noted are these: MCF7, 72 h. Type of series: functional, cell-based. A general note: Formazan colour is commonly taken as a measure of viable cells.
Series [2] deals with A549. Description: Cytotoxicity against human A549 cells assessed as inhibition of cell proliferation incubated for 72 hrs by MTT assay. Type of series: functional, cell-based. The conditions noted are these: A549, 72 h.
Series [3] concerns HCT-116. Nature of the series: Cytotoxicity against human HCT-116 cells assessed as inhibition of cell proliferation incubated for 72 hrs by MTT assay. The conditions noted are these: HCT-116, 72 h. Type of series: functional, cell-based.
A short description of series [4]: Cytotoxicity against human MRC5 cells assessed as inhibition of cell proliferation incubated for 72 hrs by MTT assay. Type of series: toxicity, cell-based.
Series [5] relates to MCF7. Nature of the series: Cytotoxicity against human MCF7 cells assessed as reduction in cell viability by SRB assay. Type of series: functional, cell-based. On the technique in general: The SRB assay estimates cell density from bound dye.
Series [6] relates to HCT-116. Nature of the series: Cytotoxicity against human HCT-116 cells assessed as reduction in cell viability by SRB assay. Type of series: functional, cell-based.
Series [7] deals with A549. Description: Induction of cell cycle arrest in human A549 cells assessed as accumulation of cells at G1 phase at IC50 incubated for 24 hrs by PI staining based flow cytometric analysis (reference value: 37.40 +/- 2.40%). Type of series: functional. A general note: A flow cytometer gives signals particle by particle.
The test system of series [8] is A549. Nature of the series: Induction of cell cycle arrest in human A549 cells assessed as accumulation of cells at G2 phase at IC50 incubated for 24 hrs by PI staining based flow cytometric analysis (reference value: 23.45 +/- 1.62%). Type of series: functional.
Series [9] relates to A549. Nature of the series: Induction of cell cycle arrest in human A549 cells assessed as accumulation of cells at G1 phase at IC50 incubated for 48 hrs by PI staining based flow cytometric analysis (reference value: 53.5 +/- 4.01%). Type of series: functional.
The subject of series [10] is A549. Description: Induction of cell cycle arrest in human A549 cells assessed as accumulation of cells at G2 phase at IC50 incubated for 48 hrs by PI staining based flow cytometric analysis (reference value: 38.15 +/- 1.80%). Type of series: functional.
Series [11] has as its system MCF7. Nature of the series: Induction of cell cycle arrest in human MCF7 cells assessed as accumulation of cells at G1 phase at IC50 incubated for 24 hrs by PI staining based flow cytometric analysis relative to control. Type of series: functional.
Series [12] concerns MCF7. Nature of the series: Induction of cell cycle arrest in human MCF7 cells assessed as accumulation of cells at S phase at IC50 incubated for 24 hrs by PI staining based flow cytometric analysis relative to control. Type of series: functional.
Series [13] deals with MCF7. Nature of the series: Induction of cell cycle arrest in human MCF7 cells assessed as accumulation of cells at G2 phase at IC50 incubated for 24 hrs by PI staining based flow cytometric analysis relative to control. Type of series: functional.
Series [14] concerns HCT-116. Description: Induction of cell cycle arrest in human HCT-116 cells assessed as accumulation of cells at G2 phase at IC50 incubated for 24 hrs by PI staining based flow cytometric analysis relative to control. Type of series: functional.
Series [15] concerns HCT-116. Nature of the series: Induction of cell cycle arrest in human HCT-116 cells at IC50 incubated for 48 hrs by PI staining based flow cytometric analysis. Type of series: functional.
Series [16] deals with MCF7. Nature of the series: Induction of DNA damage in human MCF7 cells assessed as gammaH2AX positive cells at IC50 incubated for 48 hrs by PI staining based flow cytometric analysis (reference value: 7.58 +/- 1.23%). Type of series: functional.
The subject of series [17] is HCT-116. Description: Induction of DNA damage in human HCT-116 cells assessed as gammaH2AX positive cells at IC50 incubated for 48 hrs by PI staining based flow cytometric analysis (reference value: 6.24 +/- 1.94%). Type of series: functional.
Series [18] deals with A549. Nature of the series: Induction of DNA damage in human A549 cells assessed as gammaH2AX positive cells at IC50 incubated for 48 hrs by PI staining based flow cytometric analysis (reference value: 4.90 +/- 0.50%). Type of series: functional.
For series [19], the system named is A549. Nature of the series: Induction of apoptosis in human A549 cells assessed as apoptotic rate at IC50 incubated for 24 hrs by Annexin-V and 7-AAD staining based flow cytometric analysis (reference value: 4.56 +/- 0.81%). Type of series: functional.
Series [20] deals with A549. Nature of the series: Induction of apoptosis in human A549 cells assessed as apoptotic rate at IC50 incubated for 48 hrs by Annexin-V and 7-AAD staining based flow cytometric analysis (reference value: 6.56 +/- 1.17%). Type of series: functional.
Series [21] relates to HCT-116. Nature of the series: Induction of apoptosis in human HCT-116 cells assessed as increase in apoptotic cells incubated for 24 hrs by Annexin-V and 7-AAD staining based flow cytometric analysis (reference value: 8.10 +/- 2.16%). Type of series: functional.
Series [22] relates to HCT-116. Description: Induction of apoptosis in human HCT-116 cells assessed as increase in apoptotic cells incubated for 48 hrs by Annexin-V and 7-AAD staining based flow cytometric analysis (reference value: 6.82 +/- 1.05%). Type of series: functional.
For series [23], the system named is MCF7. Description: Induction of apoptosis in human MCF7 cells assessed as increase in apoptotic cells incubated for 24 hrs by Annexin-V and 7-AAD staining based flow cytometric analysis (reference value: 5.70 +/- 1.56%). Type of series: functional.
Series [24] deals with MCF7. Nature of the series: Induction of apoptosis in human MCF7 cells assessed as increase in apoptotic cells incubated for 48 hrs by Annexin-V and 7-AAD staining based flow cytometric analysis (reference value: 7.53 +/- 1.16%). Type of series: functional.
Series [25] relates to Human papillomavirus. Nature of the series: Antiviral activity against Human papillomavirus. Type of series: functional, organism-based.
Series [26] concerns HL-60. Description: Cytotoxicity against human HL-60 cells. Type of series: functional, cell-based.
In series [27] the test system is A549. Description: Cytotoxicity against human A549 cells assessed as reduction in cell viability incubated for 48 hrs by MTT assay. Type of series: functional, cell-based. The conditions noted are these: A549, 48 h.
Series [28] is described as follows: Cytotoxicity against human SGC cells assessed as reduction in cell viability incubated for 48 hrs by MTT assay. Type of series: functional, cell-based.
In series [29] the test system is K562. Description: Cytotoxicity against human K562 cells assessed as reduction in cell viability incubated for 48 hrs by MTT assay. Type of series: functional, cell-based. The conditions noted are these: K562, 48 h.
For series [30], the system named is HCT-116. Description: Cytotoxicity against human HCT-116 cells assessed as reduction in cell viability incubated for 48 hrs by MTT assay. Type of series: functional, cell-based. The conditions noted are these: HCT-116, 48 h.
Series [31] in a line: Cytotoxicity against human KB-R cells assessed as reduction in cell viability incubated for 48 hrs by MTT assay. Type of series: functional, cell-based.
Series [32] addresses Acetylcholinesterase (Homo sapiens, UniProt P22303). Nature of the series: Inhibition of AChE (unknown origin) by Ellman's method.

Chain of Acetylcholinesterase (P22303 whole entry): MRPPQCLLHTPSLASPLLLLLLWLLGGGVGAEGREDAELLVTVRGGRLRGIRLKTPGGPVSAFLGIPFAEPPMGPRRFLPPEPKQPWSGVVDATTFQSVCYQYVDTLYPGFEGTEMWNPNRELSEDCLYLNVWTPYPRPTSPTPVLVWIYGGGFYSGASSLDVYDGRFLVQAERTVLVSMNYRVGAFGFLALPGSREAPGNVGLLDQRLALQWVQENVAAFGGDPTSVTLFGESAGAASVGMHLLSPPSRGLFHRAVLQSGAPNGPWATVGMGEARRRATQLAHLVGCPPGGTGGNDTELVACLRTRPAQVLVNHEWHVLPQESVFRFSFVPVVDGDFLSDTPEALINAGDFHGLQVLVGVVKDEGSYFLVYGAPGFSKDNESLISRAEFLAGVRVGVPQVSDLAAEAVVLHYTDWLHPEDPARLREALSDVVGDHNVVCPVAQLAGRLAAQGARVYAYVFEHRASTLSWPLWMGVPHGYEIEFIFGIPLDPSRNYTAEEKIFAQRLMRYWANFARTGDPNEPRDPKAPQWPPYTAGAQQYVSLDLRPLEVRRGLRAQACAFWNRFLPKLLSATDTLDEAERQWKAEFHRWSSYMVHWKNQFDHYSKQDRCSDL

Regarding `CCc1ccc(C(=O)NC2CCc3[nH]c4ccc(NC(C)=O)cc4c3C2)o1` (stereo not drawn), the negative logarithm of the IC50 (pIC50) in series [1], in series [2] and in series [3] was less than 4.30 in each case. Moreover, in series [4], the IC50 at 72 h was more than 50 µM.
For `O=C(CSC(=S)N1CCN(c2ccc(Cl)cc2)CC1)n1c2c(c3ccccc31)CCCC2`, the negative logarithm of the IC50 (pIC50) in [5] is 5.14; in series [6] it was 5.08.
Turning to `CC(=O)Nc1ccc2[nH]c3c(c2c1)CC(NC(=O)c1ccc(Br)o1)CC3` (stereo not drawn), the negative logarithm of the IC50 (pIC50) in series [1], in [2] and in series [3] was less than 4.30 throughout. Besides, the half-inhibitory concentration (IC50) at 72 h in [4] is more than 50 µM.
Turning to `CC(=O)Nc1ccc2[nH]c3c(c2c1)CC(NC(=O)c1ccccc1)CC3` (stereo not drawn), the pIC50 in series [1], in series [2] and in series [3] was less than 4.30 throughout. Besides, the IC50 at 72 h in [4] was more than 50 µM.
With `CC(=O)NC1CCc2[nH]c3ccc(S(N)(=O)=O)cc3c2C1` (stereo not drawn), the negative-log IC50 (pIC50) in [1], in series [2] and in [3] was less than 4.30 in each case. Besides, in series [4], the IC50 at 72 h was more than 50 µM.
Consider `O=C1c2c(O)ccc(O)c2C(=O)c2c(NCCNCCO)ccc(NCCNCCO)c21` [MITOXANTRONE], for which the figures for the pIC50 in series [1], in series [2] and in series [3] were 7.74, 6.79 and 6.90, respectively. Besides, the IC50 at 72 h in [4] was determined as 0.517 µM. The Activity in [7] is reported as 34.62%; in series [8], 20.2%; in series [9], 48.61%; in series [10] it was 29.8%; in series [11] it was 44.4%; in [12], 17.9%. Also, the Activity in series [13] was found to be 33.2%; in series [14], 26.3%; in series [16], 23.01%; in series [17], 32.47%; in [18], 14.22%; in series [19], 30.26%. The Activity in series [20] is on record as 32.27%; in series [21], 32.01%; in [22], 31.1%; in series [23], 11.55%; in series [24], 67.63%. In addition, in series [15], the result was Active.
Take `O=C(N[C@@H]1CCCc2c1[nH]c1ccc(Cl)cc21)c1ccccn1`: in series [25], the negative-log IC50 (pIC50) was 8.30.
Take `CC(=O)Nc1ccc2[nH]c3c(c2c1)CC(NC(=O)OC(C)(C)C)CC3` (stereo not drawn): the pIC50 in series [1], in series [2] and in [3] was less than 4.30 in each case. Besides, the IC50 at 72 h in [4] is more than 50 µM.
In the case of `CC(=O)Nc1ccc2[nH]c3c(c2c1)CC(NC(=O)c1cc2ccccc2[nH]1)CC3` (stereo not drawn), the pIC50 in series [1], in [2] and in series [3] was less than 4.30 each time. Further, in series [4], the IC50 at 72 h was more than 50 µM.
Regarding `CC(=O)Nc1ccc2[nH]c3c(c2c1)CC(NC(=O)c1ccc(C)o1)CC3` (stereo not drawn), the pIC50 in [1], in series [2] and in series [3] was less than 4.30 in each case. Further, in [4], the 50% inhibitory concentration (IC50) at 72 h was more than 50 µM.
In the case of `CC(=O)Nc1ccc2[nH]c3c(c2c1)CC(NC(=O)c1ccc(C)s1)CC3` (stereo not drawn), the negative logarithm of the IC50 (pIC50) in series [1], in series [2] and in series [3] was less than 4.30 in each case. In addition, the half-maximal inhibitory concentration (IC50) at 72 h in series [4] was more than 50 µM.
In series [26], `CC[C@]12CCCN3C(=O)C(=O)O[C@@]31c1c([nH]c3ccccc13)CC2` had a negative-log IC50 (pIC50) of less than 4.00.
Regarding `CC(=O)Nc1ccc2[nH]c3c(c2c1)CC(NC(C)=O)CC3` (stereo not drawn), the pIC50 in series [1], in series [2] and in [3] was less than 4.30 in each case. Also, the half-maximal inhibitory concentration (IC50) at 72 h in series [4] was more than 50 µM.
As for `CCN(CC)C1CCc2c(n(C)c3ccccc23)C1=O` (stereo not drawn), the pIC50 in series [27] was 3.96; in [28], 4.61; in [29], 4.76; in series [30], 5.53; in [31] it was 3.93.
Consider `O=C1[C@H](O)C[C@]23CCCN1[C@@H]2c1c([nH]c2ccccc12)CC3`, for which, in series [32], the pIC50 was 4.41.
